Patent US9029409B2, “Isoxazolines as therapeutic agents” (AbbVie Inc., priority 2011, dated 2015)

Each compound was assayed against T1, recombinant human MMP13 catalytic domain (CD) (Homo sapiens, UniProt P45452) (assay: MMP-13 catalytic domain FRET enzyme assay). Settings: recombinant human MMP-13 catalytic domain.
T1 construct: catalytic domain (CD) construct encompassing residues 20-274 (SWISS-PROT P45452); made in house
Type: biochemical
Description: A recombinant human MMP13 catalytic domain (CD) construct encompassing residues 20-274 (SWISS-PROT P45452) was generated by synthetic gene methods and bacterial expression. MMP-13 activity assays were performed using the recombinant human MMP-13 CD at a 0.4 nM concentration and the fluorogenic substrate (QXL-520)-K-P-L-A˜Nva-Dap(5-FAM)-A-R-NH2 (Anaspec cat #60554-01, San Jose, Calif.) at a 0.25 μM concentration in assay buffer containing […], pH 7.5, 10 mM CaCl2, 150 mM NaCl, 0.05% Brij 35. The assay is based on the cleavage of this substrate by MMP-13, resulting in decrease of FRET between the donor-acceptor pair and subsequent fluorescence enhancement. The assays were carried out in 384-well plates (Greiner cat #781076, Germany) for 60 min at RT. After the incubation period, the reaction was quenched by the addition of 5 μL of 500 mM EDTA (100 mM final concentration) (Rankem, Cat #E0120, India) mixed well and the rate of substrate hydrolysis was determined by monitoring change in fluorescence at excitation and emission wavelengths of 485 nm and 535 nm respectively. Fluorescence was measured on a Victor V5 plate reader (Perkin Elmer, Turku, Finland). The test compounds used for assessing the potency of inhibition of MMP-13 activity were dissolved in DMSO (final DMSO concentration in the assay was 5%). Selected compounds were also screened against full length MMP13 (R&D Systems (Cat. No. 511-MM-010), Minneapolis, Minn.) at 2 nM concentration using the same fluorogenic substrate mentioned above. The enzyme was activated using 1 m Mp-aminophenylmercuric acetate—APMA (Cat #A-9563, Sigma, Germany).
Data analysis: The percent inhibition of the enzyme activity in presence of test compounds were calculated using the equation, percent (%) Inhibition=100−[(Fi/Fc)*100] where Fc is the fluorescence corresponding to initial enzyme activity and Fi is the fluorescence corresponding to the enzyme activity in presence of inhibitor. The IC50 values were calculated by fitting the dose-response data to a sigmoidal curve fitting equation using Graph Pad prism software (Version 5, La Jolla, Calif.).
MMP13 Catalytic Domain (CD) Potency of the Described Examples Determined Using Time Resolved Fluorescence Resonance Energy Transfer (FRET) Enzyme Assays: […]

Compound | IC50 [µM]
COc1ccc(CNC(=O)c2cc(C3=NOC(C)(c4ccc(OCCO)cc4)C3)nc(C)n2)cc1 (stereo not shown) | 0.1 to 1
COc1ccc(CNC(=O)c2cc(C3=NOC(c4ccc(C(N)=O)cc4)C3)nc(C)n2)cc1 (stereo not shown) | < 0.01
COc1cc(CNC(=O)c2cc(C3=NOC(C4CCCCC4)C3)nc(C)n2)ccc1F (stereo not shown) | < 0.01
COc1ccc(CNC(=O)c2cc(C3=NOC(C4CCN(C(C)=O)CC4)C3)nc(C)n2)cc1 (stereo not shown) | 0.1 to 1
COc1cc(CNC(=O)c2cc(C3=NOC(c4ccccn4)C3)nc(C)n2)ccc1F (stereo not shown) | 0.01 to 0.1
COc1cc(CNC(=O)c2cc(C3=NOC(C4CCC(O)CC4)C3)nc(C)n2)ccc1F (stereo not shown) | < 0.01
COc1cc(CNC(=O)c2cc(C3=NOC(c4cccnc4)C3)nc(C)n2)ccc1F (stereo not shown) | < 0.01
COc1cc(CNC(=O)c2cc(C3=NOC(c4ccc(-c5cnco5)cn4)C3)nc(C)n2)ccc1F (stereo not shown) | < 0.01
COc1cc(CNC(=O)c2cc(C3=NOC(c4ccc(S(C)(=O)=O)nn4)C3)nc(C)n2)ccc1F (stereo not shown) | 0.01 to 0.1
COc1cc(CNC(=O)c2cc(C3=NOC(c4ccc(-c5nc(C)no5)nc4)C3)nc(C)n2)ccc1F (stereo not shown) | < 0.01
COc1cc(CNC(=O)c2cc(C3=NOC(c4ccc(C(C)=O)nc4)C3)nc(C)n2)ccc1F (stereo not shown) | < 0.01
COc1cc(CNC(=O)c2cc(C3=NOC(c4ccc(C(N)=O)nn4)C3)nc(C)n2)ccc1F (stereo not shown) | 0.01 to 0.1
COc1cc(CNC(=O)c2cc(C3=NOC(c4ccc(C#N)nn4)C3)nc(C)n2)ccc1F (stereo not shown) | < 0.01
COc1cc(CNC(=O)c2cc(C3=NOC([C@H]4CC[C@H](CNC(=O)CO)CC4)C3)nc(C)n2)ccc1F (stereo partly shown) | < 0.01
COc1cc(CNC(=O)c2cc(C3=NOC(c4cc(-c5nc(C)no5)nn4C)C3)nc(C)n2)ccc1F (stereo not shown) | 0.01 to 0.1
COc1cc(CNC(=O)c2cc(C3=NOC(c4cc(C(N)=O)nn4C)C3)nc(C)n2)ccc1F (stereo not shown) | 0.1 to 1
COc1cc(CNC(=O)c2cc(C3=NOC([C@H]4CC[C@H](CNC(=O)CC#N)CC4)C3)nc(C)n2)ccc1F (stereo partly shown) | < 0.01
CNC(=O)c1ccc(C2CC(c3cc(C(=O)NCc4ccc(F)c(OC)c4)nc(C)n3)=NO2)nn1 (stereo not shown) | 0.01 to 0.1
COc1cc(CNC(=O)c2cc(C3=NOC(c4ccc(-c5nc(C)no5)nn4)C3)nc(C)n2)ccc1F (stereo not shown) | < 0.01
COc1cc(CNC(=O)c2cc(C3=NO[C@H]([C@H]4CO[C@H](CNC(=O)CO)CO4)C3)nc(C)n2)ccc1F | < 0.01
COc1cc(CNC(=O)c2cc(C3=NOC(c4ccc(-c5cnco5)nc4)C3)nc(C)n2)ccc1F (stereo not shown) | < 0.01
COc1cc(CNC(=O)c2cc(C3=NOC(c4ccc(CO)nc4)C3)nc(C)n2)ccc1F (stereo not shown) | 0.01 to 0.1
COc1cc(CNC(=O)c2cc(C3=NOC([C@H]4CC[C@H](NC(=O)NCCO)CC4)C3)nc(C)n2)ccc1F (stereo partly shown) | < 0.01

Compound | IC50 [µM]
COc1cc(CNC(=O)c2cc(C3=NOC([C@H]4CC[C@H](NC(=O)N(C)CCO)CC4)C3)nc(C)n2)ccc1F (stereo partly shown) | < 0.01
COc1cc(CNC(=O)c2cc(C3=NOC(c4cnc(S(C)(=O)=O)cn4)C3)nc(C)n2)ccc1F (stereo not shown) | 0.01 to 0.1
COc1cc(CNC(=O)c2cc(C3=NOC(c4ccc(C#N)nc4)C3)nc(C)n2)ccc1F (stereo not shown) | < 0.01
COc1cc(CNC(=O)c2cc(C3=NOC(C4CCN(C(=O)CCN(C)C)CC4)C3)nc(C)n2)ccc1F (stereo not shown) | 0.01 to 0.1
Cc1nc(C(=O)NCc2ccc(F)c(C)c2)cc(C2=NO[C@H]([C@H]3CO[C@H](CO)CO3)C2)n1 | 0.1 to 1
COc1cc(CNC(=O)c2cc(C3=NO[C@H]([C@@H]4CO[C@@H](C(=O)O)CO4)C3)nc(C)n2)ccc1F | 0.01 to 0.1
CNC(=O)N[C@H]1CC[C@H](C2CC(c3cc(C(=O)NCc4ccc(F)c(OC)c4)nc(C)n3)=NO2)CC1 (stereo partly shown) | < 0.01
COc1cc(CNC(=O)c2cc(C3=NOC([C@H]4CC[C@H](NC(=O)N(C)C)CC4)C3)nc(C)n2)ccc1F (stereo partly shown) | < 0.01
Cc1nc(C(=O)NCc2ccc(Cl)c(Cl)c2)cc(C2=NO[C@H]([C@H]3CO[C@H](CO)CO3)C2)n1 | > 1
COc1cc(CNC(=O)c2cc(C3=NOC(c4cnn(CCO)c4)C3)nc(C)n2)ccc1F (stereo not shown) | > 1
COc1cc(CNC(=O)c2cc(C3=NO[C@H]([C@H]4CO[C@H](CNC(=O)CC#N)CO4)C3)nc(C)n2)ccc1F | < 0.01
COc1cc(CNC(=O)c2cc(C3=NO[C@H]([C@H]4CO[C@H](CNC(=O)C(C)(C)O)CO4)C3)nc(C)n2)ccc1F | 0.01 to 0.1
CNC(=O)NC[C@@H]1CO[C@@H]([C@@H]2CC(c3cc(C(=O)NCc4ccc(F)c(OC)c4)nc(C)n3)=NO2)CO1 | 0.01 to 0.1
COc1cc(CNC(=O)c2cc(C3=NO[C@H]([C@H]4CO[C@H](CNC(=O)N(C)C)CO4)C3)nc(C)n2)ccc1F | 0.01 to 0.1
COc1cc(CNC(=O)c2cc(C3=NOC(C(=O)N4CCCC4)C3)nc(C)n2)ccc1F (stereo not shown) | > 1
COc1cc(CNC(=O)c2cc(C3=NOC([C@H]4CC[C@H](NC(=O)CN(C)C)CC4)C3)nc(C)n2)ccc1F (stereo partly shown) | 0.01 to 0.1
COc1cc(CNC(=O)c2cc(C3=NOC(c4cnc5[nH]ncc5c4)C3)nc(C)n2)ccc1F (stereo not shown) | 0.01 to 0.1
COc1cc(CNC(=O)c2cc(C3=NOC(c4cnc5c(cnn5C)c4)C3)nc(C)n2)ccc1F (stereo not shown) | 0.01 to 0.1
COc1cc(CNC(=O)c2cc(C3=NOC(C(=O)NCCO)C3)nc(C)n2)ccc1F (stereo not shown) | 0.1 to 1
COc1cc(CNC(=O)c2cc(C3=NOC(C(N)=O)C3)nc(C)n2)ccc1F (stereo not shown) | > 1
COc1cc(CNC(=O)c2cc(C3=NO[C@H]([C@H]4CO[C@H](C(C)(C)O)CO4)C3)nc(C)n2)ccc1F | 0.01 to 0.1
CNC(=O)[C@@H]1CO[C@@H]([C@@H]2CC(c3cc(C(=O)NCc4ccc(F)c(OC)c4)nc(C)n3)=NO2)CO1 | < 0.01
CNC(=O)[C@H]1CC[C@H](C2CC(c3cc(C(=O)NCc4ccc(F)c(OC)c4)nc(C)n3)=NO2)CC1 (stereo partly shown) | < 0.01

Compound | IC50 [µM]
COc1cc(CNC(=O)c2cc(C3=NOC([C@H]4CC[C@H](C(N)=O)CC4)C3)nc(C)n2)ccc1F (stereo partly shown) | < 0.01
COc1cc(CNC(=O)c2cc(C3=NOC([C@H]4CC[C@H](NC(=O)C(C)(C)O)CC4)C3)nc(C)n2)ccc1F (stereo partly shown) | 0.01 to 0.1
COc1cc(CNC(=O)c2cc(C3=NOC([C@H]4CC[C@H](NC(=O)[C@H](C)O)CC4)C3)nc(C)n2)ccc1F (stereo partly shown) | < 0.01
COc1cc(CNC(=O)c2cc(C3=NOC(CN4CCC(CO)C4)C3)nc(C)n2)ccc1F (stereo not shown) | > 1
COc1cc(CNC(=O)c2cc(C3=NOC(CN4CCN(C(C)=O)CC4)C3)nc(C)n2)ccc1F (stereo not shown) | > 1
COc1cc(CNC(=O)c2cc(C3=NOC(c4ccc(N(C)C)nn4)C3)nc(C)n2)ccc1F (stereo not shown) | > 1
COc1cc(CNC(=O)c2cc(C3=NOC(c4ccc(N5CCCC5)nn4)C3)nc(C)n2)ccc1F (stereo not shown) | > 1
COc1cc(CNC(=O)c2cc(C3=NOC([C@H]4CC[C@H](NC(=O)NC(CO)CO)CC4)C3)nc(C)n2)ccc1F (stereo partly shown) | 0.01 to 0.1
COc1cc(CNC(=O)c2cc(C3=NOC([C@H]4CC[C@H](C(=O)NCCO)CC4)C3)nc(C)n2)ccc1F (stereo partly shown) | < 0.01
COc1cc(CNC(=O)c2cc(C3=NOC([C@H]4CC[C@H](NC(=O)N(C)CC(O)CO)CC4)C3)nc(C)n2)ccc1F (stereo partly shown) | < 0.01
CC(=O)N[C@H]1CC[C@H](C2CC(c3cc(C(=O)NCc4ccc(F)c(C)c4)nc(C)n3)=NO2)CC1 (stereo partly shown) | < 0.01
Cc1nc(C(=O)NCc2ccc(F)c(C)c2)cc(C2=NOC(c3ccc(C#N)nn3)C2)n1 (stereo not shown) | < 0.01
CNCC(C)N[C@H]1CC[C@H](C2CC(c3cc(C(=O)NCc4ccc(F)c(OC)c4)nc(C)n3)=NO2)CC1 (stereo partly shown) | 0.01 to 0.1
Cc1nc(C(=O)NCc2ccc(F)c(C)c2)cc(C2=NO[C@H]([C@H]3CO[C@H](CS(C)(=O)=O)CO3)C2)n1 | < 0.01
CC(=O)NC[C@@H]1CO[C@@H]([C@@H]2CC(c3cc(C(=O)NCc4ccc(F)c(C)c4)nc(C)n3)=NO2)CO1 | < 0.01
CC(=O)NC[C@@H]1CO[C@@H]([C@@H]2CC(c3cc(C(=O)NCc4ccc(F)c(Cl)c4)nc(C)n3)=NO2)CO1 | < 0.01
Cc1nc(C(=O)NCc2ccc(F)c(Cl)c2)cc(C2=NO[C@H]([C@H]3CO[C@H](CS(C)(=O)=O)CO3)C2)n1 | < 0.01
Cc1cccc(CNC(=O)c2cc(C3=NO[C@H]([C@H]4CO[C@H](CO)CO4)C3)nc(C)n2)c1 | > 1
Cc1cccc(CNC(=O)c2cc(C3=NO[C@@H]([C@H]4CO[C@H](CO)CO4)C3)nc(C)n2)c1 | > 1
Cc1nc(C(=O)NCc2ccc(F)cc2)cc(C2=NOC(c3ccc(C#N)nn3)C2)n1 (stereo not shown) | 0.01 to 0.1
Cc1nc(C(=O)NCc2ccc(F)cc2)cc(C2=NOC(c3ccc(=O)n(C)c3)C2)n1 (stereo not shown) | 0.01 to 0.1
